What all share (type): cell-based, murine
Assay [1] has as its system C2C12 wild-type myotubes. Kind of assay: Fusion index and myotube morphology in wild-type myotubes.
The subject of assay [2] is hSSPN-Luciferase reporter cells (human sarcospan promoter reporter in C2C12). As to the kind of experiment: hSSPN-Luciferase reporter assay (Bright-Glo). As to conditions: doses between 3.9 nm to 1 μM, 48 hours (FIG. 10b). As for the experimental part: C2C12 immortalized murine myoblasts cultured in growth media consisting of DMEM (Gibco) with 20% Fetal Bovine Serum (Sigma-Aldrich) at 37° C. with 5% CO2 were transfected with the hSSPN-EGFP or hSSPN-Luciferase linearized plasmids using Lipofectamine 3000 Transfection Reagent (Thermo Fisher Scientific). Transfected cells were selected using 800 μg/ml of G418 (Sigma-Aldrich) for 4 weeks to generate stable cell lines expressing reporter protein under control of the human SSPN promoter.
hSSPN-Luciferase myoblasts were cultured as described above. After 48 hours of treatment, plates were allowed to equilibrate to room temperature before the media was aspirated using an EL406 combination washer dispenser at room temperature. Bright-Glo luciferase assay system reagent (Promega) and differentiation media were added to cells at a 1:2 dilution using a Multidrop 384. After a 3-minute incubation at room temperature, luminescence signal was quantified using an Envision plate reader (PerkinElmer). The relative luminescence units were analyzed to determine fold change of treated over vehicle treated cells.
Cells were treated for 48 hours beginning at day 2 of differentiation with DMSO (vehicle control, ATCC), felodipine (Sigma), nilvadipine (Sigma), alloxazine (Sigma), GW5074 (Sigma), methylthioadenosine (Santa Cruz Biotechnology), or ezutromid (Cayman Chemicals) diluted in cell type specific differentiation media at doses listed in the figures. For gene expression studies, each treatment was performed in duplicate. For protein studies, each treatment was performed with single or double replicates.

Assay [3] has as its system SSPN protein. Kind of assay: SSPN protein immunoblot in mdx myotubes. As to conditions: mdx cells, 48 hours, immunoblot normalized to GAPDH (FIG. 10f). On the procedure:
C2C12 cells (American Type Culture Collection) were grown at 37° C. with 5% CO2 in growth media containing DMEM (Gibco) with 20% FBS (Sigma-Aldrich). Upon reaching confluency, the media was replaced with differentiation media containing DMEM with 2% horse serum (Sigma-Aldrich). Conditionally immortalized H2K mdx myoblast cells with a nonsense mutation in exon 23 of dystrophin were a gift from Terrance Partridge, Ph.D. (Children's National Medical Center, Washington, D.C.). Cells were allowed to proliferate on 0.01% gelatin (Sigma-Aldrich) coated plates at 33° C. with 5% CO2 with growth media containing DMEM, 20% HI-FBS (Invitrogen), 2% L-glutamine (Sigma-Aldrich), 2% chicken embryo extract (Accurate Chemical), 1% penicillin-streptomycin (Sigma-Aldrich), and 20U/ml of fresh interferon gamma (Gibco). […] The supernatant was collected, quantified for protein concentration using the DC protein assay (Bio-Rad), and normalized to 2 mg/ml in water and Laemmli sample buffer with a final concentration of 10% glycerol (Sigma-Aldrich), 5% beta-mercaptoethanol (Sigma-Aldrich), 3% sodium dodecyl sulfate (Sigma-Aldrich), and 0.05% bromophenol blue (Sigma-Aldrich). […] Autoradiography films were developed using a SRX-101A tabletop processor (Konica Minolta), scanned to a digital file, and analyzed by densitometry of bands using ImageJ version 1.51s. […]

Structures are written as SMILES.

`CCOC(=O)C1=C(C)NC(C)=C(C(=O)OC)C1c1cccc(Cl)c1Cl` (centres unmarked) [Felodipine, 5-O-ethyl 3-O-methyl 4-(2,3-dichlorophenyl)-2,6-dimethyl-1,4-dihydropyridine-3,5-dicarboxylate]: the “fusion index (nuclei in myosin heavy chain positive area/total nuclei in field)” value in assay [1] (wild-type myotubes (FIG. 12c-d)) is “does not increase fusion index”. For the same compound, in assay [1] (wild-type myotubes (FIG. 12e-f)), the “formation of hypertrophic myotubes” value was “does induce the formation of hypertrophic wild-type myotubes”. The “hSSPN-Luciferase reporter activity, counterscreen” value in assay [2] is listed as “increased activity”. In addition, the SSPN protein levels entry in assay [3] is recorded as “increases sarcospan protein levels”; in assay [3] (listed as felodipine), “increased SSPN protein levels”.

Values taken from US12109204B2, “Methods for treating muscular dystrophies” (The Regents of the University of California, priority 2018, dated 2024).
